Reference: patent US20230373930A1, “AMINOIMIDAZOLE FPR2 AGONISTS” (BRISTOL-MYERS SQUIBB COMPANY, priority 2020, published 2023)

What was measured:
[1] = target: T1, human FPR1 (Homo sapiens, UniProt P21462); experiment: FPR1 cyclic adenosine monophosphate (cAMP) assay; format: cell-based; conditions: CHO cells overexpressing human FPR1; forskolin 10 μM; inhibition of cAMP production; HTRF; read-out: hFPR1 cAMP2 EC50
T1 sequence (P21462 1-350): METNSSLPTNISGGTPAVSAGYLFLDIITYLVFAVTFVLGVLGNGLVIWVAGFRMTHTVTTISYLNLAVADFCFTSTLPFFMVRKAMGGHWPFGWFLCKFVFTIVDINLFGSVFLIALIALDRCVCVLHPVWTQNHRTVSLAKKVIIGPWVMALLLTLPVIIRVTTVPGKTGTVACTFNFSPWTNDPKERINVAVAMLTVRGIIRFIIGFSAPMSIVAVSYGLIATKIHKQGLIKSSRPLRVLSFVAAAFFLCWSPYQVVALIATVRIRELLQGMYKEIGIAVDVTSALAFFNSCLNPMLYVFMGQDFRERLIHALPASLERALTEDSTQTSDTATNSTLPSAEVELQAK
How it was run: (§1)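 CHO cells overexpressing human FPR1 (4,000/well, 10 μM forskolin) or FPR2 (2,000/well, 5 μM forskolin) were incubated with 200 μM IBMX and compound (0.020 nM–100 μM, 1% DMSO) for 30 min at room temperature. Intracellular cAMP was measured by HTRF against a cAMP standard curve, and inhibition of cAMP production was fitted to a 4-parameter logistic.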

[2] = target: T2, human FPR2 (Homo sapiens, UniProt P25090); experiment: FPR2 cyclic adenosine monophosphate (cAMP) assay; format: cell-based; conditions: CHO cells overexpressing human FPR2; forskolin 5 μM; inhibition of cAMP production; HTRF; read-out: hFPR2 cAMP2 EC50
T2 sequence (P25090 1-351): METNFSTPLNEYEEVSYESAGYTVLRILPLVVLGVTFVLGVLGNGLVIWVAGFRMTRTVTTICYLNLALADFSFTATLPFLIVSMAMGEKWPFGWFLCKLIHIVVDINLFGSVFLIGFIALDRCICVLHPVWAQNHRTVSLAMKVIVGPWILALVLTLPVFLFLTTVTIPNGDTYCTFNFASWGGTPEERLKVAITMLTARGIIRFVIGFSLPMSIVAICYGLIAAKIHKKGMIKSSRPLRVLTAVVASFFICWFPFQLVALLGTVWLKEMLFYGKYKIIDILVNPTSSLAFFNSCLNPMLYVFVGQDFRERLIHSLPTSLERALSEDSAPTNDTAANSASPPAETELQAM
How it was run: as §1

| EC50 [1] | EC50 [2] | Structure (SMILES) |
| --- | --- | --- |
| 1400 nM | 56 nM | COc1cc(F)c(-n2cc(C(=O)NCCCO)nc2NC(=O)c2ccc(OC(F)F)cc2)c(F)c1 [Example 60, 1-(2,6-Difluoro-4-methoxyphenyl)-2-[4-(difluoromethoxy)benzamido]-N-(3-hydroxypropyl)-1H-imidazole-4-carboxamide] |
| 1300 nM | 46 nM | COc1cc(F)c(-n2cc(Cc3ccccc3)nc2NC(=O)c2ccc(OC(F)F)cc2)c(F)c1 [Example 71, N-[4-benzyl-1-(2,6-difluoro-4-methoxyphenyl)-1H-imidazol-2-yl]-4-(difluoromethoxy)benzamide] |
| 4100 nM | 130 nM | COc1cc(F)c(-n2cc(C(=O)NCCO)nc2NC(=O)c2ccc(OC(F)F)cc2)c(F)c1 [Example 53, 1-(2,6-Difluoro-4-methoxyphenyl)-2-[4-(difluoromethoxy)benzamido]-N-(2-hydroxyethyl)-1H-imidazole-4-carboxamide] |
| 1000 nM | 21 nM | CCc1cn(-c2c(F)cc(OC)cc2F)c(NC(=O)c2ccc(OC(F)F)cc2)n1 [Example 39, N-[1-(2,6-Difluoro-4-methoxyphenyl)-4-ehtyl-1H-imidazol-2-yl]-4-(difluoromethoxy)benzamide] |
| 140 nM | 86 nM | COc1ccc(-n2cc(-c3ccc4sccc4c3)nc2NC(=O)c2ccc(OC(F)F)cc2)cc1 [Example 22, N-[4-(1-Benzothiophen-5-yl)-1-(4-methoxyphenyl)-1H-imidazol-2-yl]-4-(difluoromethoxy)benzamide] |
| 450 nM | 15 nM | COc1cc(F)c(-n2cc(-c3cccc(Cl)c3)nc2NC(=O)c2ccc(OC(F)F)cc2)c(F)c1 [Example 12, N-[4-(3-Chlorophenyl)-1-(2,6-difluoro-4-methoxyphenyl)-1H-imidazol-2-yl]-4-(difluoromethoxy)benzamide] |
| > 10000 nM | 77 nM | COc1cc(F)c(-n2cc(C(=O)N3CCC[C@H]3CO)nc2NC(=O)c2ccc(OC(F)F)cc2)c(F)c1 [Example 50, N-[1-(2,6-Difluoro-4-methoxyphenyl)-4-[(2S)-2-(hydroxymethyl)pyrrolidine-1-carbonyl]-1H-imidazol-2-yl]-4-(difluoromethoxy)benzamide] |
| > 10000 nM | 130 nM | COc1cc(F)c(-n2cc(C(=O)N3CCNCC3)nc2NC(=O)c2ccc(OC(F)F)cc2)c(F)c1 [Example 61, N-[1-(2,6-Difluoro-4-methoxyphenyl)-4-(piperazine-1-carbonyl)-1H-imidazol-2-yl]-4-(difluoromethoxy)benzamide] |
| 38 nM | 3 nM | COc1ccc(-n2cc(-c3ccccc3)nc2NC(=O)c2ccc(OC(F)F)cc2)cc1 [Example 2, 4-(Difluoromethoxy)-N-[1-(4-methoxyphenyl)-4-phenyl-1H-imidazol-2-yl]benzamide] |
| 710 nM | 10 nM | COc1cc(F)c(-n2cc(C3CCNCC3)nc2NC(=O)c2ccc(OC(F)F)cc2)c(F)c1 [Example 63, N-[1-(2,6-Difluoro-4-methoxyphenyl)-4-(piperidin-4-yl)-1H-imidazol-2-yl]-4-(difluoromethoxy)benzamide] |
| 47 nM | 6 nM | COc1ccc(-n2cc(-c3ccccc3F)nc2NC(=O)c2ccc(OC(F)F)cc2)cc1 [Example 25, 4-(Difluoromethoxy)-N-[4-(2-fluorophenyl)-1-(4-methoxyphenyl)-1H-imidazol-2-yl]benzamide] |
| 44 nM | 28 nM | COc1ccc(-n2cc(-c3nc4ccccc4s3)nc2NC(=O)c2ccc(OC(F)F)cc2)cc1 [Example 23, N-[4-(1,3-Benzothiazol-2-yl)-1-(4-methoxyphenyl)-1H-imidazol-2-yl]-4-(difluoromethoxy)benzamide] |
| 2200 nM | 82 nM | COc1cc(F)c(-n2cc(C(=O)N3CCC(CO)C3)nc2NC(=O)c2ccc(OC(F)F)cc2)c(F)c1 (centres unmarked) [Example 59, N-[1-(2,6-Difluoro-4-methoxyphenyl)-4-[3-(hydroxymethyl)pyrrolidine-1-carbonyl]-1H-imidazol-2-yl]-4-(difluoromethoxy)benzamide] |
